From ChEMBL document CHEMBL4190316, “Synthesis and biological evaluation of 4-biphenylamino-5-halo-2(5H)-furanones as potential anticancer agents” (Eur J Med Chem, 2017)
Active and inactive are the calls of the source. No cut-off for these calls is given here.

Tests used:
C6 = test: Cytotoxicity against rat C6 cells assessed as reduction in cell viability after 72 hrs by MTT assay; assay type: functional, cell-based; conditions: C6, 72 h
HaCaT = test: Cytotoxicity against human HaCaT cells assessed as reduction in cell viability after 72 hrs by MTT assay; assay type: cell-based
CNE = test: Cytotoxicity against human CNE1 cells assessed as reduction in cell viability after 72 hrs by MTT assay; assay type: functional, cell-based
[1] = Cytotoxicity against human NCI-EC1 cells assessed as reduction in cell viability after 72 hrs by MTT assay; assay type: functional, cell-based
MDA-MB-231 = test: Cytotoxicity against human MDA-MB-231 cells assessed as reduction in cell viability after 72 hrs by MTT assay; assay type: functional, cell-based; conditions: MDA-MB-231, 72 h
MCF7 = test: Cytotoxicity against human MCF7 cells assessed as reduction in cell viability after 72 hrs by MTT assay; assay type: functional, cell-based; conditions: MCF7, 72 h
HepG2 = test: Cytotoxicity against human HepG2 cells assessed as reduction in cell viability after 72 hrs by MTT assay; assay type: functional, cell-based; conditions: HepG2, 72 h
[2] = Octanol-water partition coefficient, log P of the compound at 10 mM after 24 hrs by UV-vis spectroscopic method; assay type: physicochemical
Quadruplex DNA [3] = test: Effect on conformation of c-Myc G-quadruplex DNA (unknown origin) at 1 mM measured every 3 mins by CD spectroscopic analysis; assay type: nucleic-acid assay
Quadruplex DNA [4] = test: Binding affinity to c-Myc G-quadruplex DNA (unknown origin) at 20 uM incubated for 3 mins by electronic absorption spectra method; assay type: nucleic-acid assay
Quadruplex DNA [5] = test: Binding affinity to c-Myc G-quadruplex DNA (unknown origin) assessed as hypochromism at 20 uM incubated for 3 mins by electronic absorption spectra method; assay type: nucleic-acid assay
Quadruplex DNA [6] = test: Binding affinity to c-Myc G-quadruplex DNA (unknown origin) at 20 uM incubated for 2 mins by fluorescence emission spectra method; assay type: nucleic-acid assay

logP at 24 h, 10000 µM [2]	Activity (Quadruplex DNA [3])	K (Quadruplex DNA [4]) [×10⁶ /M]	Activity (Quadruplex DNA [5]) [%]	Activity (Quadruplex DNA [6])	SMILES	IC50 (C6) [µM]	IC50 (HaCaT) [µM]	IC50 (CNE) [µM]	IC50 [1] [µM]	IC50 (MDA-MB-231) [µM]	IC50 (MCF7) [µM]	IC50 (HepG2) [µM]
1.31	inactive	9.4	17	Active	CC(=O)OC1OC(=O)C(Br)=C1Nc1ccc(-c2ccccc2)cc1 (stereo not drawn)	44.4	91.4	81.7	34.9	60.2	37.3	27.4
1.5	–	–	–	–	COC1OC(=O)C(Cl)=C1Nc1ccc(-c2ccccc2)cc1 (stereo not drawn)	36.3	41.2	53.5	32.2	66.5	40.6	35.8
1.46	–	–	–	–	COC1OC(=O)C(Br)=C1Nc1ccc(-c2ccc(N)cc2)cc1 (stereo not drawn)	64.2	69.6	68.6	> 100	> 100	59.6	82.3
